# Measurements published in patent publication US20050272784A1 (priority 2004, published 2005).
# Tested on: SPI1 type III protein secretion system (SopE'-'Bla secretion)
# Test: Primary assay: Type III protein secretion of the chimeric SopE'-'Bla polypeptide by Salmonella enterica
# Format: cell-based
# Details: read-out: SopE IC50
# From the text: Primary assay: Type III protein secretion of the chimeric SopE′-'Bla polypeptide by Salmonella enterica. This procedure is a cell-based assay that measures the type III-dependent secretion by Salmonella enterica of a plasmid-encoded chimeric polypeptide whose synthesis can be regulated, and which is endowed with an enzymatic activity that can be monitored […] by hydrolysis of a substrate that is unable to penetrate into the bacterial cytoplasm within the time constraints of the reaction. Thus, the colorimetric reaction is not influenced by SopE′-'Bla polypeptide in the bacterial cytoplasm. Instead, it effectively measures the amount of polypeptide that has been secreted from the S. enterica cytoplasm to the extracellular medium via type III system protein secretion.
# The SopE′-' Bla recombinant polypeptide consists of two functionally distinct domains spliced together. The N-terminus domain is encoded by a polynucleotide region specifying the signal for type III secretion of the SopE polypeptide of S. enterica, an effector of the SPI1 type III protein secretion system. The C-terminus domain of SopE′-'Bla consists of a 263 amino acid peptide sequence that corresponds to the TEM-1 β-lactamase expressed by plasmid pBR322 but without its N-terminal signal sequence. The TEM-1 β-lactamase part of the SopE′-'Bla chimeric polypeptide is used as a reporter enzyme. It is capable of hydrolyzing nitrocefin resulting in a product whose accumulation can be monitored by colorimetric detection. The secretion of the SopE′-'Bla chimeric polypeptide from the cytoplasm to the extracellular medium is dependent on type III protein secretion.
# For this procedure, cells grown under conditions known to favor a functional SPI1 secretion system are induced for expression of the SopE′-'Bla protein and grown either in the presence or in the absence of putative inhibitors for determined time. Nitrocefin is then added to the various cultures and its hydrolysis are used for quantitation. An inhibitor of Type III protein secretion is generally a compound that reduces the signal of the enzymatic reaction by decreasing the amount of SopE′-'Bla secreted into the extracellular medium.
row,Compound,IC50 [µM]
1,"O=C(N[C@@H](C[S+]([O-])Cc1ccccc1)C(=O)O)c1nc(-c2ccc(C(F)(F)F)cc2)[nH]c1-c1ccc(-c2ccccc2)cc1 (stereo partly drawn) [Compound 12, (R)-2-{[5-Biphenyl-4-yl-2-(4-trifluoromethylphenyl)-1H-imidazole-4-carbonyl]amino}-3-phenylmethanesulfinylpropionic acid]",14
2,"O=C(N[C@@H](CSCc1ccccc1)C(=O)O)c1nc(-c2ccc(C(F)(F)F)cc2)oc1-c1ccc(-c2nccs2)cc1 [Compound 21, (R)-3-Benzylsulfanyl-2-{[5-(4-thiazol-2-yl-phenyl)-2-(4-trifluoromethylphenyl)oxazole-4-carbonyl]amino}propionic acid]",3.1
3,"O=C(N[C@@H](COCc1ccccc1)C(=O)O)c1nc(-c2ccc(C(F)(F)F)cc2)oc1-c1cccnc1Cl [Compound 24, (S)-3-Benzyloxy-2-{[5-(2-chloropyridin-3-yl)-2-(4-trifluoromethylphenyl)oxazole-4-carbonyl]amino}propionic acid]",80.5
4,"O=C(N[C@@H](CSCc1ccccc1)C(=O)O)c1nc(-c2ccc(C(F)(F)F)cc2)oc1-c1cccnc1Cl [Compound 25, (R)-3-Benzylsulfanyl-2-{[5-(2-chloropyridin-3-yl)-2-(4-trifluoromethylphenyl)oxazole-4-carbonyl]amino}propionic acid]",62.6
5,"O=C(N[C@@H](CSCc1ccccc1)C(=O)O)c1nc(-c2ccc(C(F)(F)F)cc2)oc1-c1ccc2ccccc2n1 [Compound 26, (R)-3-Benzylsulfanyl-2-{[5-quinolin-2-yl-2-(4-trifluoromethylphenyl)oxazole-4-carbonyl]amino}propionic acid]",5.8
6,"O=C(N[C@@H](Cc1ccc(Cl)cc1)C(=O)O)c1nc(-c2ccc(C(F)(F)F)cc2)oc1-c1ccc2ccccc2n1 [Compound 28, (S)-3-(4-Chlorophenyl)-2-{[5-quinolin-2-yl-2-(4-trifluoromethylphenyl)oxazole-4-carbonyl]amino}propionic acid]",3.6
7,"O=C(N[C@@H](C[S+]([O-])Cc1ccccc1)C(=O)O)c1nc(-c2ccc(C(F)(F)F)cc2)oc1-c1cccnc1N1CCCCC1 (stereo partly drawn) [Compound 30, (R)-3-Phenylmethanesulfinyl-2-{[5-(3,4,5,6-tetrahydro-2H-[1,2′]bipyridin-3′-yl)-2-(4-trifluoromethylphenyl)oxazole-4-carbonyl]amino}propionic acid]",29.2
8,"O=C(N[C@@H](CS(=O)(=O)Cc1ccccc1)C(=O)O)c1nc(-c2ccc(C(F)(F)F)cc2)oc1-c1cccnc1N1CCCCC1 [Compound 31, (R)-3-Phenylmethanesulfonyl-2-{[5-(3,4,5,6-tetrahydro-2H-[1,2′]bipyridin-3′-yl)-2-(4-trifluoromethylphenyl)oxazole-4-carbonyl]amino}propionic acid]",71.5
9,"CC(=O)N1CCN(c2ncccc2-c2oc(-c3ccc(C(F)(F)F)cc3)nc2C(=O)NC(Cc2ccc(Cl)cc2)C(=O)O)CC1 (stereo not shown) [Compound 32, 2-{[5-[2-(4-Acetylpiperazin-1-yl)pyridin-3-yl]-2-(4-trifluoromethylphenyl)oxazole-4-carbonyl]amino}-3-(4-chlorophenyl)propionic acid]",77.3
10,"O=C(NC(CSCc1ccccc1)C(=O)O)c1nc(-c2ccc(Oc3ccccc3)cc2)oc1-c1ccc(Cl)nc1Cl (stereo not shown) [Compound 36, 3-Benzylsulfanyl-2-{[5-(2,6-dichloropyridin-3-yl)-2-(4-phenoxyphenyl)oxazole-4-carbonyl]amino}propionic acid]",3.3
11,"O=C(NC(Cc1ccc(Cl)cc1)C(=O)O)c1nc(-c2ccc(Oc3ccccc3)cc2)oc1-c1ccc(Cl)nc1Cl (stereo not shown) [Compound 38, 3-(4-Chlorophenyl)-2-{[5-(2,6-dichloropyridin-3-yl)-2-(4-phenoxyphenyl)oxazole-4-carbonyl]amino}propionic acid]",2.4
12,"O=C(N[C@@H](CSCc1ccccc1)C(=O)O)c1nc(-c2ccc(Oc3ccccc3)cc2)oc1-c1cnc(Cl)c(Cl)c1 [Compound 39, (R)-3-Benzylsulfanyl-2-{[5-(5,6-dichloropyridin-3-yl)-2-(4-phenoxyphenyl)oxazole-4-carbonyl]amino}propionic acid]",9.1
13,"O=C(N[C@@H](COCc1ccccc1)C(=O)O)c1nc(-c2ccc(Oc3ccccc3)cc2)oc1-c1cnc(Cl)c(Cl)c1 [Compound 40, (S)-3-Benzyloxy-2-{[5-(5,6-dichloropyridin-3-yl)-2-(4-phenoxyphenyl)oxazole-4-carbonyl]amino}propionic acid]",5.2
14,"O=C(N[C@@H](COCc1ccccc1)C(=O)O)c1nc(-c2ccc(-c3ccccc3)cc2)oc1-c1cnc(Cl)c(Cl)c1 [Compound 44, (S)-3-Benzyloxy-2-{[2-biphenyl-4-yl-5-(5,6-dichloropyridin-3-yl)oxazole-4-carbonyl]amino}propionic acid]",3.3
15,"Cn1cc(-c2oc(-c3ccc(C(F)(F)F)cc3)nc2C(=O)N[C@@H](CSCc2ccccc2)C(=O)O)c2ccccc21 [Compound 46, (R)-3-Benzylsulfanyl-2-{[5-(1-methyl-1H-indol-3-yl)-2-(4-trifluoromethylphenyl)oxazole-4-carbonyl]amino}propionic acid]",47.3
16,"Cn1cc(-c2oc(-c3ccc(C(F)(F)F)cc3)nc2C(=O)N[C@@H](COCc2ccccc2)C(=O)O)c2ccccc21 [Compound 47, (S)-3-Benzyloxy-2-{[5-(1-methyl-1H-indol-3-yl)-2-(4-trifluoromethylphenyl)oxazole-4-carbonyl]amino}propionic acid]",54
17,"N=C(NO)c1ccc(-c2oc(-c3ccc(C(F)(F)F)cc3)nc2C(=O)N[C@@H](CSCc2ccccc2)C(=O)O)cc1 [Compound 49, (R)-3-Benzylsulfanyl-2-{[5-[4-(N-hydroxycarbamimidoyl)phenyl]-2-(4-trifluoromethylphenyl)oxazole-4-carbonyl]amino}propionic acid]",34.7
18,"O=C(N[C@@H](CSCc1ccccc1)C(=O)O)c1nc(-c2ccc(C(F)(F)F)cc2)oc1-c1ccc(-c2noc(C(F)(F)F)n2)cc1 [Compound 50, (R)-3-Benzylsulfanyl-2-{[5-[4-(5-trifluoromethyl[1,2,4]oxadiazol-3-yl)phenyl]-2-(4-trifluoromethylphenyl)oxazole-4-carbonyl]amino}propionic acid]",64.3
19,"O=C(NC(Cc1ccc(Cl)cc1)C(=O)O)c1nc(-c2ccc(C(F)(F)F)cc2)oc1-c1cnc2ccccc2n1 (stereo not shown) [Compound 54, 3-(4-Chlorophenyl)-2-{[5-quinoxalin-2-yl-2-(4-trifluoromethylphenyl)oxazole-4-carbonyl]amino}propionic acid]",49.4
20,O=C(N[C@@H](COCc1ccccc1)C(=O)O)c1nc(-c2ccc(C(F)(F)F)cc2)oc1C1CCN(c2nccc(C(F)(F)F)n2)CC1 [Compound 56],12
21,"O=C(NC(Cc1ccc(Cl)cc1)C(=O)O)c1nc(-c2cccc3ccccc23)oc1-c1ccc(C(F)(F)F)nc1 (stereo not shown) [Compound 58, 3-(4-Chlorophenyl)-2-{[2-naphthalen-1-yl-5-(6-trifluoromethylpyridin-3-yl)oxazole-4-carbonyl]amino}propionic acid]",4.2
22,"O=C(NC(Cc1ccc(Cl)cc1)C(=O)O)c1cc(-c2ccc(-c3ccccc3)cc2)nn1-c1cccc(C(F)(F)F)c1 (stereo not shown) [Compound 74, 2-{[5-Biphenyl-4-yl-2-(3-trifluoromethylphenyl)-2H-pyrazole-3-carbonyl]amino}-3-(4-chlorophenyl)propionic acid]",1.5
23,"O=C(NC(Cc1ccc(Cl)cc1)C(=O)O)c1cc(-c2ccc(-c3ccccc3)cc2)nn1-c1ccc(Cl)c(Cl)c1 (stereo not shown) [Compound 75, 2-{[5-Biphenyl-4-yl-2-(3,4-dichlorophenyl)-2H-pyrazole-3-carbonyl]amino}-3-(4-chlorophenyl)propionic acid]",3
24,"O=C(NC(Cc1ccc(Cl)cc1)C(=O)O)c1cc(-c2ccc(-c3ccccc3)cc2)nn1-c1ccc(C(F)(F)F)cc1 (stereo not shown) [Compound 76, 2-{[5-Biphenyl-4-yl-2-(4-trifluoromethylphenyl)-2H-pyrazole-3-carbonyl]amino}-3-(4-chlorophenyl)propionic acid]",19.6

# Tested on: type III protein secretion system of P. aeruginosa PA103 (ExoU secretion)
# Test: Tertiary assay: Type III-dependent secretion of ExoU by P. aeruginosa PA103
# Format: cell-based
# Details: Pseudomonas aeruginosa, ExoU Conc 100 μM, read-out: ExoU % Inh
# From the text: Tertiary assay: inhibition of Type III protein secretion of effectors from a Pseudomonas aeruginosa system. Type III protein secretion is used by P. aeruginosa to secrete several essential virulence determinants. One effector of the type III protein secretion system of P. aeruginosa PA103 is the virulence determinants ExoU.
# The amount of Type III-dependent secretion of ExoU by P. aeruginosa PA103 can be determined in a cell-based assay by quantification of the 73.9 kDa ExoU protein scereted into the extracellular medium. Such quantitation can be achieved by growing strain PA103 in a deferrated medium in the presence of nitrilotriacetic acid (an inducer of Type III protein secretion in P. aeruginosa) and either in the presence or absence of putative inhibitors. After a prolonged growth period, the cells are sedimented and the supernatants concentrated by ammonium sulfate precipitation. The proteins in the resuspended pellets are separated by electrophoresis on SDS-polyacrylamide gels. After staining gels with Colloidal Blue™, the 73.9 kDa ExoU band is quantitated by scanning through an imager. The effects of inhibitors on the intensity of the ExoU band may be measured relative to that of untreated controls.
row,Compound,inhibition at 100 µM [%]
1,"O=C(N[C@@H](C[S+]([O-])Cc1ccccc1)C(=O)O)c1nc(-c2ccc(C(F)(F)F)cc2)[nH]c1-c1ccc(-c2ccccc2)cc1 (stereo partly drawn) [Compound 12, (R)-2-{[5-Biphenyl-4-yl-2-(4-trifluoromethylphenyl)-1H-imidazole-4-carbonyl]amino}-3-phenylmethanesulfinylpropionic acid]",84.3
